In article PMC7395068, “The evolution of strategies to minimise the risk of human drug-induced liver injury (DILI) in drug discovery and development” (Archives of Toxicology, 2020):
Read-outs that look alike come from different tables or passages of the source.

Legend:
[1] = Plasma free fraction (fu) and unbound Cmax (Cmax,u); type: in vitro ADME, human
Experimental: The prediction of DILI severity was evaluated further using the 3D combined HCI assays using plasma-free fraction. The majority of fu values were obtained from literature, when unavailable in-house prediction was utilised. Unbound plasma Cmax concentrations (Cmax,u) were derived by multiplying total plasma Cmax with the corresponding free fraction (fu) for each compound.

HepaRG spheroids [2] = tested on: HepaRG spheroids
[3] = cited from earlier work
hLiMTs [4] = tested on: hLiMTs
hLiMTs [5] = conditions: cited from earlier work
hLiMTs [6] = experiment: Combined HCI (HCS) and cellular ATP 3D assay in hLiMTs; conditions: for AC50 / minimal effective concentration: Homo sapiens
HepaRG spheroids [7] = experiment: Combined HCI (HCS) and cellular ATP 3D assay in HepaRG spheroids; conditions: HepaRG; for AC50 / minimal effective concentration: Homo sapiens
PHH = conditions: cited from earlier work
[8] = tested on: THLE or HepG2 cells, isolated mitochondria, BSEP; conditions: cited from earlier work
[9] = tested on: HepG2 C3A spheroid, BSEP, Glu/Gal in HepG2 cells, bioactivation; conditions: cited from earlier work
[10] = in vivo; cited from earlier work
human hepatocytes = conditions: cited from earlier work
[11] = plasma free fraction; cited from earlier work
[12] = in vivo; cited from earlier work; remark: listed apart in the source
PHH spheroids = conditions: cited from earlier work

## CO[C@@]12[C@H](COC(N)=O)C3=C(C(=O)C(C)=C(N)C3=O)N1C[C@@H]1N[C@@H]12 [mitomycin C]
[1]; human
  Human plasma Cmax,u: 5.396 µM
HepaRG spheroids [2]
  HepaRG <10 uM All: +ve (key: +ve: <10 uM)
HepaRG spheroids [2]; human
  HepaRG <100x Avg Cmaxu ATP: +ve (key: +ve: <100x Avg Cmaxu)
  HepaRG <100x Avg Cmaxu All: +ve (key: +ve: <100x Avg Cmaxu)
  HepaRG <100x Avg Cmaxu HCS: +ve (key: +ve: <100x Avg Cmaxu)
  HepaRG Cmax max All: +ve
  HepaRG Cmax min All: +ve
[3]; human, in vivo
  Cmax: 7.1 µM
hLiMTs [4]
  hLiMTs <10 uM All: +ve (key: +ve: <10 uM)
hLiMTs [4]; human
  hLiMTs <100x Avg Cmaxu ATP: +ve (key: +ve: <100x Avg Cmaxu)
  hLiMTs <100x Avg Cmaxu All: +ve (key: +ve: <100x Avg Cmaxu)
  hLiMTs <100x Avg Cmaxu HCS: +ve (key: +ve: <100x Avg Cmaxu)
  hLiMTs Cmax max All: +ve
  hLiMTs Cmax min All: +ve
hLiMTs [5]
  hLiMTs/100uM, Proctor (2017): +VE (key: +VE: IC50 threshold of 100 µM)
hLiMTs [6]; read-out: ATP endpoint AC50
  AC50: 0.929 µM
hLiMTs [6]; read-out: ATP endpoint MEC
  minimal effective concentration: 0.454 µM
hLiMTs [6]; read-out: HCS endpoint AC50
  AC50: 1.09 µM
hLiMTs [6]; read-out: HCS endpoint MEC
  minimal effective concentration: 0.399 µM
HepaRG spheroids [7]; read-out: ATP endpoint AC50
  AC50: 0.4 µM
HepaRG spheroids [7]; read-out: ATP endpoint MEC
  minimal effective concentration: 0.4 µM
HepaRG spheroids [7]; read-out: HCS endpoint AC50
  AC50: 0.4 µM
HepaRG spheroids [7]; read-out: HCS endpoint MEC
  minimal effective concentration: 0.4 µM
PHH
  PHH/100uM, Proctor (2017): +VE (key: +VE: IC50 threshold of 100 µM)

## CC(COc1ccccc1)N(CCCl)Cc1ccccc1 (centres unmarked) [phenoxybenzamine]
[8]
  Partition Hybrid HRM Score: +VE
  Partition Hybrid HRM Score ≥4, Aleo (2019): +VE (key: +VE: Partition Hybrid HRM Score ≥4)
  Partition Hybrid HRM Score ≥8, Aleo (2019): -VE
  Ro2 Hybrid HRM Score: +VE
  Rule of Two hybrid HRM Score ≥3, Aleo (2019): +VE (key: +VE: Rule of Two hybrid HRM Score ≥3)
  Rule of Two hybrid HRM Score ≥8, Aleo (2019): -VE
[1]; unbound plasma Cmax
  Human plasma Cmax,u: 0.002 µM
[9]
  Bayesian Machine Learning: -VE
  Bayesian Machine Learning DILI prediction, Williams (2019): -VE
HepaRG spheroids [2]
  DILI prediction HepaRG spheroids (HCS-MEC): -VE
[10]
  Assigned DILI category: 1
  In vivo DILI: -VE
Human hepatocytes
  DILI in vitro assay prediction, Xu (2008): -VE
  Structural based (HCI): -VE
[3]; read-out: Human plasma Cmax, total plasma Cmax.tot, median of 9 literature references
  Cmax: 0.197 µM
hLiMTs [4]
  DILI prediction hLiMTs (HCS-MEC): -VE
hLiMTs [5]
  hLiMTs ATP <100uM: -VE
  hLiMTs/100uM, Proctor (2017): -VE
  hLiMTs/100xCmax, Proctor (2017): -VE
[11]
  fu: 0.009
hLiMTs [6]; read-out: ATP endpoint AC50
  AC50: 26.9 µM
hLiMTs [6]; read-out: ATP endpoint MEC
  minimal effective concentration: 10.7 µM
hLiMTs [6]; read-out: HCS endpoint MEC
  minimal effective concentration: 15.6 µM
hLiMTs [6]; hLiMTs, ATP endpoint, cut-off <25x Avg Cmax
  hLiMTs <25x Avg Cmax ATP: -ve
hLiMTs [6]; hLiMTs, ATP endpoint, cut-off <100x Avg Cmaxu
  hLiMTs <100x Avg Cmaxu ATP: -ve
hLiMTs [6]; hLiMTs, HCS endpoints, cut-off <25x Avg Cmax
  hLiMTs <25x Avg Cmax HCS: -ve
hLiMTs [6]; hLiMTs, HCS endpoints, cut-off <100x Avg Cmaxu
  hLiMTs <100x Avg Cmaxu HCS: -ve
hLiMTs [6]; hLiMTs, all endpoints (ATP and HCS), cut-off <25x Avg Cmax
  hLiMTs <25x Avg Cmax All: -ve
hLiMTs [6]; hLiMTs, all endpoints, Cmax max used
  hLiMTs Cmax max All: -ve
hLiMTs [6]; hLiMTs, all endpoints, Cmax min used
  hLiMTs Cmax min All: -ve
hLiMTs [6]; hLiMTs, all endpoints, cut-off <10 uM
  hLiMTs <10 uM All: -ve
hLiMTs [6]; hLiMTs, all endpoints, cut-off <100x Avg Cmaxu
  hLiMTs <100x Avg Cmaxu All: -ve
HepaRG spheroids [7]; ATP endpoint, cut-off <25x Avg Cmax
  HepaRG <25x Avg Cmax ATP: -ve
HepaRG spheroids [7]; ATP endpoint, cut-off <100x Avg Cmaxu
  HepaRG <100x Avg Cmaxu ATP: -ve
HepaRG spheroids [7]; HCS endpoints, cut-off <25x Avg Cmax
  HepaRG <25x Avg Cmax HCS: -ve
HepaRG spheroids [7]; HCS endpoints, cut-off <100x Avg Cmaxu
  HepaRG <100x Avg Cmaxu HCS: -ve
HepaRG spheroids [7]; all endpoints (ATP and HCS), cut-off <25x Avg Cmax
  HepaRG <25x Avg Cmax All: -ve
HepaRG spheroids [7]; all endpoints, Cmax max used
  HepaRG Cmax max All: -ve
HepaRG spheroids [7]; all endpoints, Cmax min used
  HepaRG Cmax min All: -ve
HepaRG spheroids [7]; all endpoints, cut-off <10 uM
  HepaRG <10 uM All: -ve
HepaRG spheroids [7]; all endpoints, cut-off <100x Avg Cmaxu
  HepaRG <100x Avg Cmaxu All: -ve
HepaRG spheroids [7]; read-out: ATP endpoint MEC
  minimal effective concentration: 25.3 µM
HepaRG spheroids [7]; read-out: HCS endpoint MEC
  minimal effective concentration: 53.8 µM
[12]
  DILI +VE (5-8), DILI -VE (-4): -VE
  DILI severity category (Chen et al. [2016]): No
PHH spheroids
  DILI in vitro assay prediction, Vorrink (2018): -VE
  hLiMTs ATP <20 x Cmax: -VE
PHH
  PHH ATP <100uM: -VE
  PHH/100uM, Proctor (2017): -VE
  PHH/100xCmax, Proctor (2017): -VE
